Results as given in ChEMBL document CHEMBL1130802, “Design and synthesis of a new type of non steroidal human aromatase inhibitors” (Bioorg Med Chem Lett, 1998).

Assays:
Aromatase [1] = target: T1, Aromatase (Homo sapiens, UniProt P11511)
T1 sequence (P11511 whole entry): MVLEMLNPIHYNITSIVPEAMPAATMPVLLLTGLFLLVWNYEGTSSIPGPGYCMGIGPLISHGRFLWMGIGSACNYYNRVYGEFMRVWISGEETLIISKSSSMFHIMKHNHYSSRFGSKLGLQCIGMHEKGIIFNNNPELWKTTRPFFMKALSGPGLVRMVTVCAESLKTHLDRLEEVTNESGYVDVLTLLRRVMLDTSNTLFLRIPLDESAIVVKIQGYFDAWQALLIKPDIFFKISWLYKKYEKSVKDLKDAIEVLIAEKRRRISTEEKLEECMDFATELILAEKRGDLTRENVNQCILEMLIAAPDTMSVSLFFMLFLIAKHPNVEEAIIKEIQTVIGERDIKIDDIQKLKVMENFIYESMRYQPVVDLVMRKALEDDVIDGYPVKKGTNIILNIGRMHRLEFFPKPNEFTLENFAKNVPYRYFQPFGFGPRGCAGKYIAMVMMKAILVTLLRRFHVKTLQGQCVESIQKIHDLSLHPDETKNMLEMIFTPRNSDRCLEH
Description: Inhibition of human aromatase cytochrome P450 19A1 activity

Aromatase [2] = target: T1, Aromatase; remark: listed apart in the source
Description: Inhibition constant for human aromatase cytochrome P450 19A1 activity

IC50 (Aromatase [1]): 800 nM
Ki (Aromatase [2]): 10.3 nM
Structure (SMILES): O=C1/C(=C\c2ccncc2)C(c2ccccc2)c2ccccc21 (configuration not stated)
